Legend:
[1] = tested on: TNFα production in LPS-stimulated human monocytes; test: Cot Monocyte TNFα Cell Based Assay; conditions: Homo sapiens, Monocyte, TNFα in LPS-stimulated human monocytes; read-out: EC50 TNF
Summary of the method: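 Percent-of-control values derive from TR-FRET ratios of TNFα in spun-down media, referenced to unstimulated and LPS-stimulated wells. Exposure: 1 h compound preincubation, then 50 pg/ml LPS for 4 h, both at 37 °C, with 0.5% final DMSO.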

[2] = target: T1, human Cot catalytic domain (30-397 amino acids) (Homo sapiens, UniProt P41279); test: High Throughput Cot Biochemical Assay (KinEASE TR-FRET); conditions: Cot biochemical HTRF (KinEASE TR-FRET) assay; read-out: IC50 HTRF
T1 construct: Purified recombinant human Cot catalytic domain (30-397 amino acids) was purchased from Cama Biosciences; purchased Cama Biosciences (so in the source)
T1 sequence (P41279 30-397): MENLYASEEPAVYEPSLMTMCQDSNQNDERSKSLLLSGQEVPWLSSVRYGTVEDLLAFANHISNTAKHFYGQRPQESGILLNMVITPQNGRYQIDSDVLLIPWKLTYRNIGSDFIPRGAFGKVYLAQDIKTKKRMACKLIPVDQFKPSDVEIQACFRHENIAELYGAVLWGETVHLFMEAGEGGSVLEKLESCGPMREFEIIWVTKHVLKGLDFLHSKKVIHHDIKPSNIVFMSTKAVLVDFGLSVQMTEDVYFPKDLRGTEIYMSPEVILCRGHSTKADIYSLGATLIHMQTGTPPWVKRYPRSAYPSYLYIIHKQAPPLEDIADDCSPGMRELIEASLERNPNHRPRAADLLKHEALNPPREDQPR
Summary of the method: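 Phosphorylation of 1 μM XL665-STK3 peptide by 5 nM Cot catalytic domain was measured by time-resolved FRET using a europium […] antibody. ATP was 400 μM; buffer was 10 mM MOPS pH 7.0 with Mg2+ and DTT.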

EC50 [1] [nM]	IC50 [2] [nM]	SMILES
963	78	N#Cc1cnc2c(Cl)cc(N[C@@H](c3ccc(Cl)cc3)c3cn(C4CCN(C5COC5)CC4)nn3)cc2c1Nc1ccc(F)c(Cl)c1 [Example 802, (S)-8-chloro-4-((3-chloro-4-fluorophenyl)amino)-6-(((4-chlorophenyl)(1-(1-(oxetan-3-yl)piperidin-4-yl)-1H-1,2,3-triazol-4-yl)methyl)amino)quinoline-3-carbonitrile]
206	7	CC(C)(C)N1CCC(n2cc([C@@H](Nc3cc(Cl)c4ncc(C#N)c(Nc5ccc(F)c(Cl)c5)c4c3)c3ccc(Cl)cc3)nn2)CC1 [Example 803, (S)-6-(((1-(1-(tert-butyl)piperidin-4-yl)-1H-1,2,3-triazol-4-yl)(4-chlorophenyl)methyl)amino)-8-chloro-4-((3-chloro-4-fluorophenyl)amino)quinoline-3-carbonitrile]
> 1000	588	Cc1nonc1C(Nc1cc(Cl)c2ncc(C#N)c(Nc3ccc(F)c(Cl)c3)c2c1)c1ccc(F)cc1 (stereo not shown) [Example 805, 8-chloro-4-((3-chloro-4-fluorophenyl)amino)-6-(((4-fluorophenyl)(4-methyl-1,2,5-oxadiazol-3-yl)methyl)amino)quinoline-3-carbonitrile]
> 50000	850	N#Cc1cnc2c(Cl)cc(NC(c3ccc(F)cc3)c3cscn3)cc2c1Nc1ccc(F)c(Cl)c1 (stereo not shown) [Example 806, 8-chloro-4-((3-chloro-4-fluorophenyl)amino)-6-(((4-fluorophenyl)(thiazol-4-yl)methyl)amino)quinoline-3-carbonitrile]
426	22	N#Cc1cnc2c(Cl)cc(N[C@@H](c3ccc(F)cc3)c3c[nH]nn3)cc2c1Nc1ccc(F)c(Cl)c1 [Example 819, (S)-8-chloro-4-((3-chloro-4-fluorophenyl)amino)-6-(((4-fluorophenyl)(1H-1,2,3-triazol-4-yl)methyl)amino)quinoline-3-carbonitrile]
150	4	CC(C)N1CCC(n2cc([C@@H](Nc3cc(Cl)c4ncc(C#N)c(Nc5ccc(F)c(Cl)c5)c4c3)c3ccc(F)cc3)nn2)CC1 [Example 825, (S)-8-chloro-4-((3-chloro-4-fluorophenyl)amino)-6-(((4-fluorophenyl)(1-(1-isopropylpiperidin-4-yl)-1H-1,2,3-triazol-4-yl)methyl)amino)quinoline-3-carbonitrile]
22100	998	Cn1cc([C@H](Nc2cc(Cl)c3ncc(C#N)c(Nc4ccc(F)c(Cl)c4)c3c2)c2cccc(CN3CCCC3)c2)nn1 [Example 842, (R)-8-chloro-4-((3-chloro-4-fluorophenyl)amino)-6-(((1-methyl-1H-1,2,3-triazol-4-yl)(3-(pyrrolidin-1-ylmethyl)phenyl)methyl)amino) quinoline-3-carbonitrile]

Continued, compound first:

SMILES	EC50 [1] [nM]	IC50 [2] [nM]
N#Cc1cnc2c(Cl)cc(N[C@@H](c3ccccc3)c3cn(CCN)nn3)cc2c1Nc1ccc(F)c(Cl)c1 [Example 796, (S)-6-(((1-(2-aminoethyl)-1H-1,2,3-triazol-4-yl)(phenyl)methyl)amino)-8-chloro-4-((3-chloro-4-fluorophenyl)amino)quinoline-3-carbonitrile]	200	2
CN(C)CCCn1cc([C@@H](Nc2cc(Cl)c3ncc(C#N)c(Nc4ccc(F)c(Cl)c4)c3c2)c2ccccc2)nn1 [Example 797, (S)-8-chloro-4-((3-chloro-4-fluorophenyl)amino)-6-(((1-(3-(dimethylamino)propyl)-1H-1,2,3-triazol-4-yl)(phenyl)methyl)amino) quinoline-3-carbonitrile]	107	3
CC1(Cn2cc([C@@H](Nc3cc(Cl)c4ncc(C#N)c(Nc5ccc(F)c(Cl)c5)c4c3)c3ccc(F)cc3)nn2)COC1 [Example 808, (S)-8-chloro-4-((3-chloro-4-fluorophenyl)amino)-6-(((4-fluorophenyl)(1-((3-methyloxetan-3-yl)methyl)-1H-1,2,3-triazol-4-yl)methyl)amino)quinoline-3-carbonitrile]	434	26
CCN1CCC(n2cc([C@@H](Nc3cc(F)c4ncc(C#N)c(Nc5ccc(F)c(Cl)c5)c4c3)c3ccc(Cl)cc3)nn2)CC1 [Example 813, (S)-4-((3-chloro-4-fluorophenyl)amino)-6-(((4-chlorophenyl)(1-(1-ethylpiperidin-4-yl)-1H-1,2,3-triazol-4-yl)methyl)amino)-8-fluoroquinoline-3-carbonitrile]	116	6
N#Cc1cnc2c(F)cc(N[C@@H](c3ccc(Cl)cc3)c3cn(C4CCNCC4)nn3)cc2c1Nc1ccc(F)c(Cl)c1 [Example 814, (S)-4-((3-chloro-4-fluorophenyl)amino)-6-(((4-chlorophenyl)(1-(piperidin-4-yl)-1H-1,2,3-triazol-4-yl)methyl)amino)-8-fluoroquinoline-3-carbonitrile]	704	10
CN(C)C(=O)CN1CCC(n2cc([C@@H](Nc3cc(Cl)c4ncc(C#N)c(Nc5ccc(F)c(Cl)c5)c4c3)c3ccc(F)cc3)nn2)CC1 [Example 824, (S)-2-(4-(4-(((8-chloro-4-((3-chloro-4-fluorophenyl)amino)-3-cyanoquinolin-6-yl)amino)(4-fluorophenyl)methyl)-1H-1,2,3-triazol-1-yl)piperidin-1-yl)-N,N-dimethylacetamide]	450	58
N#Cc1cnc2c(Cl)cc(N[C@@H](c3ccc(F)cc3)c3cn(C4CCN(CC(F)(F)F)CC4)nn3)cc2c1Nc1ccc(F)c(Cl)c1 [Example 828, (S)-8-chloro-4-((3-chloro-4-fluorophenyl)amino)-6-(((4-fluorophenyl)(1-(1-(2,2,2-trifluoroethyl)piperidin-4-yl)-1H-1,2,3-triazol-4-yl)methyl)amino)quinoline-3-carbonitrile]	1150	297
CC(C)(C)N1CCC(n2cc([C@@H](Nc3cc(Cl)c4ncc(C#N)c(Nc5ccc(F)c(Cl)c5)c4c3)c3ccccc3)nn2)CC1 [Example 831, (S)-6-(((1-(1-(tert-butyl)piperidin-4-yl)-1H-1,2,3-triazol-4-yl)(phenyl)methyl)amino)-8-chloro-4-((3-chloro-4-fluorophenyl)amino)quinoline-3-carbonitrile]	381	10
CC(C)(C)N1CCC(n2cc([C@@H](Nc3cc(Cl)c4ncc(C#N)c(Nc5ccc(F)c(Cl)c5)c4c3)c3ccc(F)cc3)nn2)CC1 [Example 836, (S)-6-(((1-(1-(tert-butyl)piperidin-4-yl)-1H-1,2,3-triazol-4-yl)(4-fluorophenyl)methyl)amino)-8-chloro-4-((3-chloro-4-fluorophenyl)amino)quinoline-3-carbonitrile]	241	8
Cn1cc([C@@H](Nc2cc(Cl)c3ncc(C#N)c(Nc4ccc(F)c(Cl)c4)c3c2)c2cccc(CN3CCCC3)c2)nn1 [Example 841, (S)-8-chloro-4-((3-chloro-4-fluorophenyl)amino)-6-(((1-methyl-1H-1,2,3-triazol-4-yl)(3-(pyrrolidin-1-ylmethyl)phenyl)methyl)amino) quinoline-3-carbonitrile]	141	8

Source: patent US10316017B2, “COT modulators and methods of use thereof” (Gilead Sciences, Inc., priority 2015, dated 2019)
